Drawing on PubChem BioAssay (NCI), this text covers TGI and GI50 for twelve compounds.

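Growth conditions: 96-well plates. Treatment: test compound, 48 hours, 5 concentrations. Analysis: linear interpolation between bracketing concentrations; unreached endpoints set to highest concentration. Abbreviation: GI50, concentration required for 50% inhibition of growth. At the TGI there is no net growth.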

Among the test systems are 786-0 renal; KM12 colon; UACC-257 melanoma; M14 melanoma; SF-539 CNS; SNB-75 CNS; DMS 273 small cell lung; LXFL 529 NSCLC; HS 578T breast; T-47D breast.
What all share (experiment): NCI tumour cell line growth inhibition, 48 h

With `CCOC(=O)CC1=Nc2ccccc2SC1`, the TGI with 786-0 renal, with KM12 colon, in the assay on UACC-257 melanoma, in the assay with M14 melanoma, with SF-539 CNS and with SNB-75 CNS was greater than 100 µM throughout. For the same compound, the TGI in the assay with DMS 273 small cell lung and in the assay on LXFL 529 NSCLC was greater than 100 µM in each case.
`CCCCCCCCCCCCCCCC(=O)NCC(COP(=O)([O-])OCC[N+](C)(C)C)OCC` (stereo not drawn): the TGI in the assay with 786-0 renal was found to be 5.82 µM; in the assay with KM12 colon it was 3.01 µM; with UACC-257 melanoma it was 30.4 µM; with M14 melanoma, 24.7 µM; in the assay on SF-539 CNS it was 29.8 µM; with SNB-75 CNS, 23 µM. For the same compound, the TGI in the assay on DMS 273 small cell lung amounted to 5 µM; in the assay with LXFL 529 NSCLC, 27.8 µM.
Consider `FC(F)(F)c1nc(-c2ccccc2Cl)[nH]c1C(F)(F)F`, for which the TGI in the assay with 786-0 renal came out at 4.73 µM; with KM12 colon, 4.13 µM; in the assay on UACC-257 melanoma, 2.2 µM; with M14 melanoma, 4.83 µM; in the assay on SF-539 CNS, 4.48 µM; with SNB-75 CNS, 5 µM. Also, the TGI in the assay with DMS 273 small cell lung stood at 3.03 µM; with LXFL 529 NSCLC, 3.73 µM.
`C1COCCN1.C1COCCN1.N.N.[Cl-].[Pt+2]`: the GI50 with 786-0 renal, in the assay on M14 melanoma, in the assay with SF-539 CNS, in the assay with SNB-75 CNS, in the assay with DMS 273 small cell lung and with LXFL 529 NSCLC was greater than 100 µM throughout. Further, the TGI in the assay with 786-0 renal, with M14 melanoma, with SF-539 CNS, in the assay with SNB-75 CNS, in the assay with DMS 273 small cell lung and in the assay with LXFL 529 NSCLC was greater than 100 µM in each case.
Take `CCOC(=O)C1(CC)CCCCC(=O)N1` (stereo not drawn): the TGI in the assay with 786-0 renal, with M14 melanoma, with DMS 273 small cell lung and with LXFL 529 NSCLC was greater than 100 µM in each case.
For `CC(=O)OC1=C2CC3(C)OC(=O)CC(C)(C)C3=CC=C2C=C(C(C)C)C1=O` (stereo not drawn), the TGI with 786-0 renal turned out to be 0.388 µM; in the assay with KM12 colon, 3.07 µM; with UACC-257 melanoma, 1.1 µM; in the assay with M14 melanoma it was 0.912 µM; with SNB-75 CNS it was 1.99 µM; in the assay with DMS 273 small cell lung, 2.65 µM. For the same compound, the TGI with LXFL 529 NSCLC came out at 0.299 µM.
For `Fc1cccc(COc2ccc(Nc3ncncc3C#Cc3ccccc3)cc2Cl)c1`, the GI50 with 786-0 renal was greater than 25 µM; in the assay with KM12 colon, greater than 25 µM; in the assay with UACC-257 melanoma it was greater than 25 µM; in the assay on M14 melanoma, greater than 25 µM; in the assay on HS 578T breast, greater than 25 µM; in the assay on T-47D breast it was 20 µM. In addition, the GI50 in the assay with SF-539 CNS and in the assay on SNB-75 CNS was greater than 25 µM throughout. Also, the TGI in the assay with 786-0 renal, in the assay with KM12 colon, with UACC-257 melanoma, with M14 melanoma, in the assay on HS 578T breast and with T-47D breast was greater than 25 µM in each case. The TGI in the assay with SF-539 CNS and with SNB-75 CNS was greater than 25 µM throughout.
In the case of `CC(C)(C)c1cc(O)c(O)c(C(C)(C)C)c1`, the GI50 was 4.6 µM in the assay on 786-0 renal; 5.57 µM with KM12 colon; 2.42 µM in the assay on UACC-257 melanoma; 3.91 µM in the assay with M14 melanoma; 3.9 µM in the assay on HS 578T breast; 2.36 µM in the assay on T-47D breast. Moreover, the results for the GI50 in the assay with SF-539 CNS and in the assay with SNB-75 CNS were 3.47 µM and 4.86 µM, respectively. Also, the TGI in the assay on 786-0 renal was determined as 16.2 µM; with KM12 colon, 16.9 µM; in the assay on UACC-257 melanoma, 7.4 µM; with M14 melanoma, 13.8 µM; in the assay on HS 578T breast, 26.7 µM; in the assay with T-47D breast, 5.02 µM. Moreover, the TGI came to 11 µM in the assay with SF-539 CNS and 19 µM with SNB-75 CNS.
Take `Cc1cc([C@@H](C)Nc2ccccc2C(=O)O)c2nc(N3CCOCC3)cc(=O)n2c1`: the GI50 in the assay with 786-0 renal was 1.23 µM; with KM12 colon, greater than 10 µM; with UACC-257 melanoma it was greater than 10 µM; with M14 melanoma it was greater than 10 µM; in the assay on HS 578T breast, 0.122 µM; in the assay with T-47D breast, 0.207 µM. Also, the GI50 in the assay with SF-539 CNS was 7.11 µM; with SNB-75 CNS it was 0.43 µM. In addition, the TGI in the assay on 786-0 renal is greater than 10 µM; with KM12 colon, greater than 10 µM; with UACC-257 melanoma, greater than 10 µM; in the assay on M14 melanoma, greater than 10 µM; in the assay on HS 578T breast it was 8.14 µM; with T-47D breast, 1.94 µM. The TGI in the assay with SF-539 CNS and with SNB-75 CNS was greater than 10 µM in each case.
For the compound `N#Cc1c(-c2cccs2)c2c(=S)[nH]c(=S)[nH]c2[nH]c1=S`, the GI50 in the assay on 786-0 renal was 36.4 µM; in the assay on KM12 colon, 28.6 µM; in the assay with UACC-257 melanoma, 18 µM; in the assay with M14 melanoma, 57.5 µM; in the assay on HS 578T breast, 53.7 µM; with T-47D breast, 28.1 µM. In addition, the GI50 is 22 µM in the assay with SF-539 CNS and greater than 100 µM in the assay with SNB-75 CNS. Further, the TGI in the assay with 786-0 renal is greater than 100 µM; with KM12 colon, greater than 100 µM; with UACC-257 melanoma it was 81.3 µM; with M14 melanoma, greater than 100 µM; in the assay with HS 578T breast, 90.3 µM; in the assay with T-47D breast it was 98.8 µM. Moreover, the TGI in the assay with SF-539 CNS was 48.1 µM; in the assay on SNB-75 CNS, greater than 100 µM.
With `CCOc1ccc(S(=O)(=O)/N=C2\C=C(SCC(=O)O)C(=O)c3ccccc32)cc1`, the GI50 in the assay on 786-0 renal was 17.4 µM; in the assay with KM12 colon, 2.8 µM; in the assay on UACC-257 melanoma, 16.1 µM; in the assay on M14 melanoma, 2.72 µM; with HS 578T breast, 2.6 µM; with T-47D breast it was 2.72 µM. In addition, the GI50 was 2.49 µM in the assay with SF-539 CNS and 2.5 µM in the assay with SNB-75 CNS. For the same compound, the TGI with 786-0 renal came out at 36 µM; in the assay on KM12 colon, 10.3 µM; in the assay on UACC-257 melanoma, 39.3 µM; in the assay on M14 melanoma, 8.12 µM; in the assay on HS 578T breast, 6.79 µM; in the assay with T-47D breast, 7.18 µM. The TGI in the assay on SF-539 CNS was found to be 5.39 µM; with SNB-75 CNS it was 4.96 µM.
In the case of `COc1ccc(-c2cc(-c3cc(Cl)ccc3Cl)nc3[nH]c(-c4cc(F)c(Cl)cc4Cl)cc(=O)c23)cc1`, the GI50 with 786-0 renal is 20.4 µM; in the assay on KM12 colon it was 21.7 µM; in the assay on UACC-257 melanoma, 21 µM; with M14 melanoma it was 13.5 µM; in the assay with HS 578T breast, 8.19 µM; with T-47D breast it was greater than 100 µM. For the same compound, the GI50 in the assay with SF-539 CNS was 18.9 µM; with SNB-75 CNS it was greater than 100 µM. In addition, the TGI with 786-0 renal was 52 µM; in the assay on KM12 colon, 67.1 µM; in the assay with UACC-257 melanoma, greater than 100 µM; with M14 melanoma it was 35.8 µM; with HS 578T breast, 50.4 µM; in the assay on T-47D breast, greater than 100 µM. The results for the TGI in the assay on SF-539 CNS and in the assay on SNB-75 CNS were 55 µM and greater than 100 µM, respectively.
